Results: US20210382058A1, “PATIENT SELECTION FOR TREATMENT OF MYC POSITIVE CANCERS WITH INDENOISOQUINOLINES” (Purdue Research Foundation, priority 2020, published 2021)
Like-named read-outs stand apart in the source and are kept apart here.

Tests used:
[1] = test system: MYC protein expression in MCF-7 breast cancer cells; assay: Western blotting of MYC protein level in MCF-7 cells; assay type: cell-based, human; settings: Homo sapiens, MCF7; western blotting, MCF-7 cells, 0.5, 1, 2, and 4 μM, 24 hours; read-out: MYC Inhibition
Procedure, shortened: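 MCF-7 cells were exposed to compounds at 0.5, 1, 2 and 4 μM for 24 hours at 37° C. MYC was detected by immunoblot with ECL, using rabbit anti-MYC (1:1000) and anti-GAPDH (1:2000) as loading control.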

[2] = test system: NCI-60 cancer cell lines; assay: NCI-60 cancer cell line drug screen (GI50, MGM); assay type: cell-based, human; settings: Homo sapiens; for GI50: read-out: Antiproliferative Activities [GI50 (μM)]
Experimental: Cancer cells were incubated with the test compounds at five concentrations ranging from 100 μM to 10 nM for 48 h. […] The approximate average of GI50 values across the entire panel of NCI-60 cancer cell lines for each compound was recorded as the MGM value.

[3] = target: T1, human topoisomerase I (Homo sapiens, UniProt P11387); settings: relative topoisomerase I inhibition levels, previously determined, six levels (0 - 5, +++++ = 5); cited from earlier work
T1 sequence (P11387 1-765): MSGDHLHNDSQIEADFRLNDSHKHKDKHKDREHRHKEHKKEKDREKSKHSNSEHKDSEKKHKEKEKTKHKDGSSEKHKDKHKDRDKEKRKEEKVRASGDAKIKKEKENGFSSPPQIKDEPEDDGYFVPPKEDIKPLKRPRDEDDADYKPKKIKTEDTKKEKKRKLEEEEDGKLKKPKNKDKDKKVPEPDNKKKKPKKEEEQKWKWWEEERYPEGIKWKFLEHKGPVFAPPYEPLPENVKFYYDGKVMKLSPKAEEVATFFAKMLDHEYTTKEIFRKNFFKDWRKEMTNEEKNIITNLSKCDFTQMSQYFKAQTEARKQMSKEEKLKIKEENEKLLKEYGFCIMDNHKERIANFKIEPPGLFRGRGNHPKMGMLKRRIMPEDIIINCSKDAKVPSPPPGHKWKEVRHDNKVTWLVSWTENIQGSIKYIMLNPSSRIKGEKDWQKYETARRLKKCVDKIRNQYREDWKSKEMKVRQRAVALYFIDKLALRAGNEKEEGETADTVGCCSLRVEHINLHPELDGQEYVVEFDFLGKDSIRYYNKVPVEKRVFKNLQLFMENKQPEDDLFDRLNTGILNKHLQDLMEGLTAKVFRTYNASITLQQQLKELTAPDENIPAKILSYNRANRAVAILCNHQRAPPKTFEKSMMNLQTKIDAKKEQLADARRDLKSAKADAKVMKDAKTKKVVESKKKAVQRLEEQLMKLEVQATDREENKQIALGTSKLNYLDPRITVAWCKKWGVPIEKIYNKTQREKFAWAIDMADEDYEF

**Q.** With `COc1cc2c(cc1O)-c1c(c3ccc([N+](=O)[O-])cc3c(=O)n1CCCN)C2=O` [Compound 38] as the compound, how does the minimal effective concentration [1] read?
**A.** 4 µM

**Q.** What about the GI50 ([2]; 786-0, Renal Cancer, 786-0) of the same compound?
**A.** 0.34 µM

**Q.** What about the GI50 ([2]; A498, Renal Cancer, A498) of the same compound?
**A.** 0.96 µM

**Q.** What about the GI50 ([2]; A549, Non-Small Cell Lung Cancer, A549/ATCC) of the same compound?
**A.** 1.31 µM

**Q.** What about the GI50 ([2]; ACHN, Renal Cancer, ACHN) of the same compound?
**A.** 0.28 µM

**Q.** And the GI50 ([2]; BT-549, Breast Cancer, BT-549)?
**A.** 0.36 µM

**Q.** And the GI50 ([2]; CAKI-1, Renal Cancer, CAKI-1)?
**A.** 0.29 µM

**Q.** What about the GI50 ([2]; CCRF-CEM, Leukemia, CCRF-CEM) of the same compound?
**A.** 0.11 µM

**Q.** And the GI50 ([2]; COLO 205, Colon Cancer, COLO 205)?
**A.** 0.69 µM

**Q.** And the GI50 ([2]; DU-145, Prostate Cancer, DU-145)?
**A.** 0.43 µM

**Q.** What about the GI50 ([2]; HCC 2998, Colon Cancer, HCC-2998) of the same compound?
**A.** 0.62 µM

**Q.** And the GI50 ([2]; HCT-15, Colon Cancer, HCT-15)?
**A.** 1.49 µM

**Q.** What about the GI50 ([2]; HCT-116, Colon Cancer, HCT-116) of the same compound?
**A.** 0.15 µM

**Q.** And the GI50 ([2]; HL-60, Leukemia, HL-60(TB))?
**A.** 1.48 µM

**Q.** And the GI50 ([2]; HOP-62, Non-Small Cell Lung Cancer, HOP-62)?
**A.** 0.46 µM

**Q.** What about the GI50 ([2]; HOP-92, Non-Small Cell Lung Cancer, HOP-92) of the same compound?
**A.** 1.34 µM

**Q.** What about the GI50 ([2]; HT-29, Colon Cancer, HT29) of the same compound?
**A.** 0.48 µM

**Q.** What about the GI50 ([2]; IGROV-1, Ovarian Cancer, IGROV1) of the same compound?
**A.** 1.24 µM

**Q.** What about the GI50 ([2]; K562, Leukemia, K-562) of the same compound?
**A.** 0.77 µM

**Q.** What about the GI50 ([2]; KM12, Colon Cancer, KM12) of the same compound?
**A.** 1.34 µM

**Q.** What about the GI50 ([2]; LOX IMVI, Melanoma, LOX IMVI) of the same compound?
**A.** 0.3 µM

**Q.** And the GI50 ([2]; Leukemia, SR)?
**A.** 0.04 µM

**Q.** And the GI50 ([2]; MCF7, Breast Cancer, MCF7)?
**A.** 0.16 µM

**Q.** What about the GI50 ([2]; MDA-MB-231, Breast Cancer, MDA-MB-231/ATCC) of the same compound?
**A.** 1.57 µM

**Q.** What about the GI50 ([2]; MDA-MB-435, Melanoma, MDA-MB-435) of the same compound?
**A.** 1.3 µM

**Q.** What about the GI50 ([2]; MDA-MB-468, Breast Cancer, MDA-MB-468) of the same compound?
**A.** 0.24 µM

**Q.** What about the GI50 ([2]; MOLT-4, Leukemia, MOLT-4) of the same compound?
**A.** 0.15 µM

**Q.** And the GI50 ([2]; Malme-3M, Melanoma, MALME-3M)?
**A.** 2.16 µM

**Q.** What about the GI50 ([2]; Melanoma, M14) of the same compound?
**A.** 0.46 µM

**Q.** What about the GI50 ([2]; NCI-H23, Non-Small Cell Lung Cancer, NCI-H23) of the same compound?
**A.** 0.38 µM

**Q.** What about the GI50 ([2]; NCI-H226, Non-Small Cell Lung Cancer, NCI-H226) of the same compound?
**A.** 1.18 µM

**Q.** And the GI50 ([2]; NCI-H322M, Non-Small Cell Lung Cancer, NCI-H322M)?
**A.** 1.39 µM

**Q.** What about the GI50 ([2]; NCI-H460, Non-Small Cell Lung Cancer, NCI-H460) of the same compound?
**A.** 0.37 µM

**Q.** And the GI50 ([2]; NCI-H522, Non-Small Cell Lung Cancer, NCI-H522)?
**A.** 0.78 µM

**Q.** What about the GI50 ([2]; OVCAR-3, Ovarian Cancer, OVCAR-3) of the same compound?
**A.** 1.69 µM

**Q.** What about the GI50 ([2]; OVCAR-4, Ovarian Cancer, OVCAR-4) of the same compound?
**A.** 1.11 µM

**Q.** What about the GI50 ([2]; OVCAR-5, Ovarian Cancer, OVCAR-5) of the same compound?
**A.** 1.67 µM

**Q.** What about the GI50 ([2]; OVCAR-8, Ovarian Cancer, OVCAR-8) of the same compound?
**A.** 1.01 µM

**Q.** What about the GI50 ([2]; Ovarian Cancer, NCl/ADR-RES) of the same compound?
**A.** 2.55 µM

**Q.** And the GI50 ([2]; Prostate Cancer, PC-3)?
**A.** 0.64 µM

**Q.** And the GI50 ([2]; RPMI-8226, Leukemia, RPMI-8226)?
**A.** 1.02 µM

**Q.** And the GI50 ([2]; RXF 393, Renal Cancer, RXF 393)?
**A.** 1.13 µM

**Q.** And the GI50 ([2]; Renal Cancer, U0-31)?
**A.** 0.69 µM

**Q.** And the GI50 ([2]; SF-268, CNS Cancer, SF-268)?
**A.** 0.55 µM

**Q.** What about the GI50 ([2]; SF-295, CNS Cancer, SF-295) of the same compound?
**A.** 0.28 µM

**Q.** What about the GI50 ([2]; SF-539, CNS Cancer, SF-539) of the same compound?
**A.** 0.67 µM

**Q.** What about the GI50 ([2]; SK-MEL-2, Melanoma, SK-MEL-2) of the same compound?
**A.** 2.18 µM

**Q.** What about the GI50 ([2]; SK-MEL-5, Melanoma, SK-MEL-5) of the same compound?
**A.** 1.26 µM

**Q.** And the GI50 ([2]; SK-MEL-28, Melanoma, SK-MEL-28)?
**A.** 1.88 µM

**Q.** And the GI50 ([2]; SK-OV-3, Ovarian Cancer, SK-OV-3)?
**A.** 1.15 µM

**Q.** What about the GI50 ([2]; SN12C, Renal Cancer, SN12C) of the same compound?
**A.** 0.45 µM

**Q.** And the GI50 ([2]; SNB-19, CNS Cancer, SNB-19)?
**A.** 1.08 µM

**Q.** What about the GI50 ([2]; SNB-75, CNS Cancer, SNB-75) of the same compound?
**A.** 0.16 µM

**Q.** And the GI50 ([2]; SW-620, Colon Cancer, SW-620)?
**A.** 0.34 µM

**Q.** And the GI50 ([2]; T47D, Breast Cancer, T-47D)?
**A.** 0.7 µM

**Q.** And the GI50 ([2]; TK-10, Renal Cancer, TK-10)?
**A.** 1.85 µM

**Q.** And the GI50 ([2]; U-251, CNS Cancer, U251)?
**A.** 0.33 µM

**Q.** What about the GI50 ([2]; UACC-62, Melanoma, UACC-62) of the same compound?
**A.** 0.95 µM

**Q.** And the GI50 ([2]; UACC-257, Melanoma, UACC-257)?
**A.** 1.57 µM

**Q.** What about the mean GI50 across NCI-60 panel (MGM) ([2]; average of GI50 values across the entire panel of NCI-60 cancer cell lines) of the same compound?
**A.** 0.66 µM

**Q.** What about the “Top1 Inhibiton” value [3] of the same compound?
**A.** ++ (medium inhibition, ++, MYC expression inhibited at 2.0 μM, or no clear dose-dependent MYC inhibition)
